Assay results reported in US20240228506A1, “RIPK1 INHIBITORS AND METHODS OF USE” (Merck Sharp & Dohme LLC, priority 2021, published 2024).

These molecules were tested against T1, GST-RIPK1 (recombinant GST-RIPK1 kinase domain (residues 1-327)) (Homo sapiens, UniProt Q13546) (assay: RIPK1-ADP-Glo enzymatic assay). Conditions: 25 nM GST-RIPK1, 300 μM ATP, 3 μM dephosphorylated-MBP; 30 minutes pre-incubation, 150 minutes reaction; ten-point titration.
T1 construct: recombinant GST-RIPK1 kinase domain (residues 1-327) enzyme; made in house; host or cells: baculovirus-transfected Sf21 insect cells
T1 sequence (Q13546 1-327): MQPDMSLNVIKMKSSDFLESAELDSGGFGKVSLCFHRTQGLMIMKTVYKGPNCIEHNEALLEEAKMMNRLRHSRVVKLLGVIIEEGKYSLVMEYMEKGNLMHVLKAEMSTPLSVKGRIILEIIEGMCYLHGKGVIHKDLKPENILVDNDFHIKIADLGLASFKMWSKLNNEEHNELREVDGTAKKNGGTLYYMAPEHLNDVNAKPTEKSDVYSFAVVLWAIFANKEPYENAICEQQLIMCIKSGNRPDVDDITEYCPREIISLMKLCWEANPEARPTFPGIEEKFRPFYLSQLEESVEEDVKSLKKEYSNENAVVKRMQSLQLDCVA
Assay type: biochemical
Procedure: The enzymatic activity of RIPK1 is measured using an assay derived from ADP-Glo kit (Promega™), which provides a luminescent-based ADP detection system. Specifically, the ADP generated by RIPK1 kinase is proportionally detected as luminescent signals in a homogenous fashion. In this context, the assessment of the inhibitory effect of small molecules (EC50) is measured by the effectiveness of the compounds to inhibit the ATP to ADP conversion by RIPK1. In this assay, the potency (EC50) of each compound was determined from a ten-point (1:3 serial dilution; top compound concentration of 100000 nM) titration curve using the following outlined procedure. To each well of a white ProxiPlus 384 well-plate, […] of compound (1% DMSO in final assay volume of 3 μL) was dispensed, followed by the addition of 2 μL of 1× assay buffer (25 mM Hepes 7.3, 20 mM MgCl2, 50 mM NaCl, 1 mM DTT, 0.005% Tween20, and 0.02% BSA) containing 37.5 nM of GST-RIPK1 (recombinant GST-RIPK1 kinase domain (residues 1-327) enzyme produced from baculovirus-transfected Sf21 cells: MW=62 kDa). Plates were placed in an ambient temperature humidified chamber for a 30 minutes pre-incubation with compound. Subsequently, each reaction was initiated by the addition of 1 μL 1×assay buffer containing 900 μM ATP and […]. The final reaction in each well of 3 μL consists of 25 nM of GST-RIPK1, 300 μM ATP, and 3 μM dephosphorylated-MBP. Kinase reactions were allowed to proceed for 150 minutes prior to adding ADP-Glo reagents per Promega's outlined kit protocol. Dose-response curves were generated by plotting percent effect (% product conversion; Y-axis) vs. Log10 compound concentrations (X-axis). EC50 values were calculated using a non-linear regression, four-parameters sigmoidal dose-response model.

IC50 | SMILES
444 nM | COC(C)(C(=O)N1C[C@@H]2C[C@H]1c1cncc(C#N)c1O2)C1CC1 (mixture of isomers) [Compound 1-62, (2S,5S)-4-(2-(S and R)-cyclopropyl-2-methoxypropanoyl)-2,3,4,5-tetrahydro-2,5-methanopyrido[3,4-f][1,4]oxazepine-9-carbonitrile]
729 nM | CC1(C(=O)N2C[C@@H]3C[C@H]2c2cncc(C#N)c2O3)CCCO1 (mixture of isomers) [Compound 1-64, (2S,5S)-4-(2-(S and R)-methyltetrahydrofuran-2-carbonyl)-2,3,4,5-tetrahydro-2,5-methanopyrido[3,4-f][1,4]oxazepine-9-carbonitrile]
640 nM | CC1(C(=O)N2C[C@@H]3C[C@H]2c2cncc(C#N)c2O3)CCOC1 (mixture of isomers) [Compound 1-67, (2S,5S)-4-(3-(S and R)-methyltetrahydrofuran-3-carbonyl)-2,3,4,5-tetrahydro-2,5-methanopyrido[3,4-f][1,4]oxazepine-9-carbonitrile]
300 nM | N#Cc1cncc2c1O[C@H]1C[C@@H]2N(C(=O)C23CCC(C2)OC3)C1 (single isomer, unassigned) [Compound 1-50, (2S,5S)-4-[(S or R)-2-oxabicyclo[2.2.1]heptane-4-carbonyl]-2,3,4,5-tetrahydro-2,5-methanopyrido[3,4-f][1,4]oxazepine-9-carbonitrile]
367 nM | N#Cc1cncc2c1O[C@H]1C[C@@H]2N(C(=O)C23CCC(C2)OC3)C1 (single isomer, unassigned) [Compound 1-51, (2S,5S)-4-[(S or R)-2-oxabicyclo[2.2.1]heptane-4-carbonyl]-2,3,4,5-tetrahydro-2,5-methanopyrido[3,4-f][1,4]oxazepine-9-carbonitrile]
47 nM | CCC(C)(C(=O)N1C[C@@H]2C[C@H]1c1cncc(C#N)c1O2)C(F)F (single isomer, unassigned) [Compound 1-84, (2S,5S)-4-(2-(R or S)-(difluoromethyl)-2-methylbutanoyl)-2,3,4,5-tetrahydro-2,5-methanopyrido[3,4-f][1,4]oxazepine-9-carbonitrile]
19 nM | CCC(C)(C(=O)N1C[C@@H]2C[C@H]1c1cncc(C#N)c1O2)C(F)F (single isomer, unassigned) [Compound 1-85, (2S,5S)-4-(2-(R or S)-(difluoromethyl)-2-methylbutanoyl)-2,3,4,5-tetrahydro-2,5-methanopyrido[3,4-f][1,4]oxazepine-9-carbonitrile]
33 nM | N#Cc1cncc2c1O[C@H]1C[C@@H]2N(C(=O)C23CCCC2C3(F)F)C1 (single isomer, unassigned) [Compound 1-86, (2S,5S)-4-((1R,5S or 1S,5R)-6,6-difluorobicyclo[3.1.0]hexane-1-carbonyl)-2,3,4,5-tetrahydro-2,5-methanopyrido[3,4-f][1,4]oxazepine-9-carbonitrile]
68 nM | N#Cc1cncc2c1O[C@H]1C[C@@H]2N(C(=O)C23CCCC2C3(F)F)C1 (single isomer, unassigned) [Compound 1-87, (2S,5S)-4-((1R,5S or 1S,5R)-6,6-difluorobicyclo[3.1.0]hexane-1-carbonyl)-2,3,4,5-tetrahydro-2,5-methanopyrido[3,4-f][1,4]oxazepine-9-carbonitrile]
96 nM | CC(C(=O)N1C[C@@H]2C[C@H]1c1cncc(C#N)c1O2)(C(F)F)C1CC1 (single isomer, unassigned) [Compound 1-88, (2S,5S)-4-(2-(R or S)-cyclopropyl-3,3-difluoro-2-methylpropanoyl)-2,3,4,5-tetrahydro-2,5-methanopyrido[3,4-f][1,4]oxazepine-9-carbonitrile]

Continued, molecule first:

SMILES | IC50
CCC(C)(OC)C(=O)N1C[C@@H]2C[C@H]1c1cncc(C#N)c1O2 (single isomer, unassigned) [Compound 1-16, (2S,5S)-4-[2(S or R)-methoxy-2-methylbutanoyl]-2,3,4,5-tetrahydro-2,5-methanopyrido[3,4-f][1,4]oxazepine-9-carbonitrile] | 10 nM
CCC(C)(OC)C(=O)N1C[C@@H]2C[C@H]1c1cncc(C#N)c1O2 (single isomer, unassigned) [Compound 1-17, (2S,5S)-4-[2(S or R)-methoxy-2-methylbutanoyl]-2,3,4,5-tetrahydro-2,5-methanopyrido[3,4-f][1,4]oxazepine-9-carbonitrile] | 24 nM
CC1(C(=O)N2C[C@@H]3C[C@H]2c2cncc(C#N)c2O3)CC1(F)F (single isomer, unassigned) [Compound 1-28, (2S,5S)-4-[(S or R)-2,2-difluoro-1-methylcyclopropane-1-carbonyl]-2,3,4,5-tetrahydro-2,5-methanopyrido[3,4-f][1,4]oxazepine-9-carbonitrile] | 201 nM
CC1(C(=O)N2C[C@@H]3C[C@H]2c2cncc(C#N)c2O3)CC1(F)F (single isomer, unassigned) [Compound 1-29, (2S,5S)-4-[(S or R)-2,2-difluoro-1-methylcyclopropane-1-carbonyl]-2,3,4,5-tetrahydro-2,5-methanopyrido[3,4-f][1,4]oxazepine-9-carbonitrile] | 376 nM
N#Cc1cncc2c1O[C@H]1C[C@@H]2N(C(=O)C23CCCC2C3)C1 (single isomer, unassigned) [Compound 1-32, (2S,5S)-4-[(1R,5R or 1S,5S)-bicyclo[3.1.0]hexane-1-carbonyl]-2,3,4,5-tetrahydro-2,5-methanopyrido[3,4-f][1,4]oxazepine-9-carbonitrile] | 290 nM
N#Cc1cncc2c1O[C@H]1C[C@@H]2N(C(=O)C23CCCC2C3)C1 (single isomer, unassigned) [Compound 1-33, (2S,5S)-4-[(1R,5R or 1S,5S)-bicyclo[3.1.0]hexane-1-carbonyl]-2,3,4,5-tetrahydro-2,5-methanopyrido[3,4-f][1,4]oxazepine-9-carbonitrile] | 94 nM
CC1(C(=O)N2C[C@@H]3C[C@H]2c2cncc(C#N)c2O3)Cc2cccc(Cl)c21 (single isomer, unassigned) [Compound 1-37, (2S,5S)-4-(5-chloro-7(R or S)-methylbicyclo[4.2.0]octa-1,3,5-triene-7-carbonyl)-2,3,4,5-tetrahydro-2,5-methanopyrido[3,4-f][1,4]oxazepine-9-carbonitrile] | 136 nM
CC1(C(=O)N2C[C@@H]3C[C@H]2c2cncc(C#N)c2O3)CCCC1(F)F (single isomer, unassigned) [Compound 1-38] | 21 nM
CC1(C(=O)N2C[C@@H]3C[C@H]2c2cncc(C#N)c2O3)CCCC1(F)F (single isomer, unassigned) [Compound 1-39] | 31 nM
CC1(C(=O)N2C[C@@H]3C[C@H]2c2cncc(C#N)c2O3)CCCC(F)(F)C1 (single isomer, unassigned) [Compound 1-40, (2S,5S)-4-[3,3-difluoro-1(R or S)-methylcyclohexane-1-carbonyl]-2,3,4,5-tetrahydro-2,5-methanopyrido[3,4-f][1,4]oxazepine-9-carbonitrile] | 62 nM
CC1(C(=O)N2C[C@@H]3C[C@H]2c2cncc(C#N)c2O3)CCCC(F)(F)C1 (single isomer, unassigned) [Compound 1-41, (2S,5S)-4-[3,3-difluoro-1-(R or S)-methylcyclohexane-1-carbonyl]-2,3,4,5-tetrahydro-2,5-methanopyrido[3,4-f][1,4]oxazepine-9-carbonitrile] | 27 nM
N#Cc1cncc2c1O[C@H]1C[C@@H]2N(C(=O)C23CCC(CC2(F)F)C3)C1 (single isomer, unassigned) [Compound 1-48, (2S,5S)-4-[(S or R)-2,2-difluorobicyclo[2.2.1]heptane-1-carbonyl]-2,3,4,5-tetrahydro-2,5-methanopyrido[3,4-f][1,4]oxazepine-9-carbonitrile] | 5 nM
N#Cc1cncc2c1O[C@H]1C[C@@H]2N(C(=O)C23CCC(CC2(F)F)C3)C1 (single isomer, unassigned) [Compound 1-49, (2S,5S)-4-[(S or R)-2,2-difluorobicyclo[2.2.1]heptane-1-carbonyl]-2,3,4,5-tetrahydro-2,5-methanopyrido[3,4-f][1,4]oxazepine-9-carbonitrile] | 70 nM
